The values below come from ChEMBL document CHEMBL1147239, “New antioxidant C-glucosylxanthones from the stems of Arrabidaea samydoides” (J Nat Prod, 2003).

This test concerns Radical scavenging activity. The test is described as follows: Antioxidant activity assessed as DPPH radical scavenging activity after 30 mins. Type of test: functional.
For `O=C(/C=C/c1ccccc1)O[C@@H]1[C@@H](O)[C@H](O)[C@@H](CO)O[C@H]1c1c(O)cc2oc3cc(O)c(O)cc3c(=O)c2c1O`, the IC50 is 31.4 µM. The result for `O=C(O[C@@H]1[C@@H](O)[C@H](O)[C@@H](CO)O[C@H]1c1c(O)cc2oc3cc(O)c(O)cc3c(=O)c2c1O)c1ccccc1` reads 32.7 µM; that for `C[C@@H]1O[C@@H](OC[C@H]2O[C@@H](Oc3c(-c4ccc(O)c(O)c4)oc4cc(O)cc(O)c4c3=O)[C@H](O)[C@@H](O)[C@@H]2O)[C@H](O)[C@H](O)[C@H]1O` [RUTIN], 12.3 µM; that for `O=C(/C=C/c1ccc(O)cc1)O[C@@H]1[C@@H](O)[C@H](O)[C@@H](CO)O[C@H]1c1c(O)cc2oc3cc(O)c(O)cc3c(=O)c2c1O`, 25.4 µM. The result for `O=C(O[C@@H]1[C@@H](O)[C@H](O)[C@@H](CO)O[C@H]1c1c(O)cc2oc3cc(O)c(O)cc3c(=O)c2c1O)c1ccc(O)cc1` [MURAXANTHONE] reads 30.7 µM; that for `O=C(/C=C/c1ccc(O)c(O)c1)O[C@@H]1[C@@H](O)[C@H](O)[C@@H](CO)O[C@H]1c1c(O)cc2oc3cc(O)c(O)cc3c(=O)c2c1O`, 17.8 µM; that for `O=c1c2cc(O)c(O)cc2oc2cc(O)c([C@@H]3O[C@H](CO)[C@@H](O)[C@H](O)[C@H]3O)c(O)c12` [MANGIFERIN], 35 µM.
